{"source": "patent US4013507A", "about": "“Ionene polymers for selectively inhibiting the vitro growth of malignant cells” (California Institute of Technology, priority 1975, dated 1977)", "key": {"in vivo [1]": {"experiment": "in vivo", "details": "mouse", "text": "Due to the high positive charge density and high water solubility, ionenes strongly interact with a wide variety of cell materials."}, "L1210 leukemia system": {"test_system": "L1210 leukemia system", "details": "when quaternized; J. Med. Chem. 10, 706, 1967; cited from earlier work"}, "in vivo [2]": {"experiment": "in vivo", "text": "Protamine sulfate and toluidine blue, neither of which are free of toxic effects, are clinically used as antiheparin agents."}, "[3]": {"test_system": "sulfhydryl groups on the cell periphery", "experiment": "Effect of N-ethylmaleimide pretreatment on cell adhesion to ionene-coated surface", "format": "cell-based", "details": "pretreatment of the cells", "text": "Chemical interaction with DNA is also a possibility. In fact, ionenes form strong waterinsoluble complexes with DNA."}, "[4]": {"experiment": "Repeated-dose tolerance of PC-6 and cyclophosphamide in mice", "format": "in vivo", "details": "similar doses to nine doses of 100 mg/kg per day"}, "DNA": {"test_system": "DNA", "details": "polyamines, general knowledge; cited from earlier work"}, "[5]": {"experiment": "Protective action of heparin against toxicity of 6,3-ionene bromide, dogs", "format": "in vivo", "text": "(§1) This is not surprising considering the formation of relatively stable complexes between ionenes and heparin."}, "[6]": {"experiment": "Protective action of heparin against toxicity of 6,3-ionene bromide, mice", "format": "in vivo", "text": "as §1"}}}
{"compound": "C[N+]1(C)CC[N+](C)(C)CC1", "values": [{"measurement": "LD50", "setting": "in vivo [1]; ip", "value": "> 1000", "unit": "mg/kg"}, {"measurement": "LD50", "setting": "in vivo [1]; po", "value": "> 1000", "unit": "mg/kg"}]}
{"compound": "C[N+](C)(CBr)CCCC[N+](C)(C)CBr", "values": [{"measurement": "LD50", "setting": "in vivo [1]; ip", "value": "> 1000", "unit": "mg/kg"}, {"measurement": "LD50", "setting": "in vivo [1]; po", "value": "> 1000", "unit": "mg/kg"}]}
{"compound": "O=C(Nc1ccc(-c2ccncc2)cc1)c1ccc(C(=O)Nc2ccc(-c3ccncc3)cc2)cc1", "values": [{"measurement": "Effectiveness against L1210 leukemia system", "setting": "L1210 leukemia system", "value": "very effective against the L1210 leukemia system when quaternized"}]}
{"compound": "Cc1cc2nc3ccc(N(C)C)cc3[s+]c2cc1N", "note": "[toluidine blue]", "values": [{"measurement": "LD50", "setting": "in vivo [2]; in vivo, iv", "value": 45, "unit": "mg/kg"}]}
{"compound": "Protamine sulfate", "values": [{"measurement": "i.v. LD50", "setting": "in vivo [2]; i.v., comparison agents, species not given", "value": 44, "unit": "mg/kg"}]}
{"compound": "CCN1C(=O)C=CC1=O", "note": "[N-ethylmaleimide (NEM), N-ethylmaleimide]", "values": [{"measurement": "Effect on cell adhesion on an ionene-coated surface", "setting": "[3]", "value": "inhibited cell adhesion on an ionene-coated surface"}]}
{"compound": "O=P1(N(CCCl)CCCl)NCCCO1", "note": "(stereo not drawn) [cyclophosphamide]", "values": [{"measurement": "Lethality of similar doses", "setting": "[4]", "value": "lethal within a much shorter time"}]}
{"compound": "NCCCCNCCCN", "note": "[Spermidine, NH2 (CH2)3 --NH--(CH2)4 NH2]", "values": [{"measurement": "Binding to DNA", "setting": "DNA", "value": "bind to DNA"}]}
{"compound": "Heparin", "values": [{"measurement": "Protective action in neutralizing the toxicity of 6,3-ionene bromide", "setting": "[5]", "value": "offers a protective action in neutralizing the toxicity of 6,3-ionene bromide"}, {"measurement": "Survival of mice pretreated with heparin", "setting": "[6]; 6,3-ionene bromide doses relative to LD50, heparin pretreatment", "value": "survive doses three times the LD50 values with only mild toxicity symptoms"}, {"measurement": "Protective action in neutralizing the toxicity of 6,3-ionene bromide", "setting": "[6]; mice", "value": "offers a protective action in neutralizing the toxicity of 6,3-ionene bromide"}]}
{"compound": "C[N+](C)(CCBr)CCCCCC[N+](C)(C)CCBr", "values": [{"measurement": "LD50", "setting": "in vivo [1]; ip", "value": "10 to 50", "unit": "mg/kg"}, {"measurement": "LD50", "setting": "in vivo [1]; po", "value": "100 to 200", "unit": "mg/kg"}]}
{"compound": "C[N+](C)(CBr)CCCCCC[N+](C)(C)CBr", "values": [{"measurement": "LD50", "setting": "in vivo [1]; ip", "value": "10 to 50", "unit": "mg/kg"}, {"measurement": "LD50", "setting": "in vivo [1]; po", "value": "300 to 500", "unit": "mg/kg"}]}
{"compound": "NCCCNCCCCNCCCN", "note": "[Spermine, NH2 (CH2)3 NH(CH2)4 NH(CH2)3 NH2]", "values": [{"measurement": "Binding to DNA", "setting": "DNA", "value": "bind to DNA"}]}
